ChEMBL document CHEMBL3797158, “Discovery of potent, reversible MetAP2 inhibitors via fragment based drug discovery and structure based drug design-Part 1” (Bioorg Med Chem Lett, 2016)

How the values were obtained:
Cytochrome P450 1A2 = target: T1, Cytochrome P450 1A2 (Homo sapiens, UniProt P05177); assay: Inhibition of human CYP1A2 expressed in Escherichia coli DH5-alpha; type: ADME
T1 sequence (P05177 whole entry): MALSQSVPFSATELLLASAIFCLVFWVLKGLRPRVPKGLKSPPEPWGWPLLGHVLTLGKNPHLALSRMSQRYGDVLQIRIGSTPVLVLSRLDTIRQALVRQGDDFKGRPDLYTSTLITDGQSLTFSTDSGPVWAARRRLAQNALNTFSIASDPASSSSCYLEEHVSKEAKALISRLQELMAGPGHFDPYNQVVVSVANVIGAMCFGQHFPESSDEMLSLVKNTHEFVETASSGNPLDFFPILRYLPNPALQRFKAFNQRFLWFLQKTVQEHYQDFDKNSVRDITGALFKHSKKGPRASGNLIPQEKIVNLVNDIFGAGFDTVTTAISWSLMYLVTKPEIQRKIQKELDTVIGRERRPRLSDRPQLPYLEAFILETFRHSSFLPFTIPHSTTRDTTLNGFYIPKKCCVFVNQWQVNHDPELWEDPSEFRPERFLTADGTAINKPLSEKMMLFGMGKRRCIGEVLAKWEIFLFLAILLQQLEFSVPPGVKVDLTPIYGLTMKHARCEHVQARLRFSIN

[1] = target: Methionine aminopeptidase 2 (Homo sapiens, UniProt P50579); assay: Inhibition of MetAP2 in HUVEC assessed as accumulation of N-Met-14-3-3gamma after 24 hrs by Western blot method; type: cell-based
[2] = Volume of distribution in diet-induced obese mouse at 5 mg/kg, po or 1 mg/kg, iv; type: ADME, organism-based; settings: in vivo
Mus musculus [3] = assay: AUC in diet-induced obese mouse at 5 mg/kg, po; type: ADME, organism-based; settings: in vivo
[4] = Half life in diet-induced obese mouse at 5 mg/kg, po or 1 mg/kg, iv; type: ADME, organism-based; settings: in vivo
Mus musculus [5] = assay: Antiobesity activity in po dosed diet-induced obese mouse assessed as body weight loss administered as qd for 28 days; type: functional, organism-based
Mus musculus [6] = assay: Oral bioavailability in diet-induced obese mouse at 5 mg/kg; type: ADME, organism-based; settings: in vivo

Methionine aminopeptidase 2, sequence (P50579 whole entry): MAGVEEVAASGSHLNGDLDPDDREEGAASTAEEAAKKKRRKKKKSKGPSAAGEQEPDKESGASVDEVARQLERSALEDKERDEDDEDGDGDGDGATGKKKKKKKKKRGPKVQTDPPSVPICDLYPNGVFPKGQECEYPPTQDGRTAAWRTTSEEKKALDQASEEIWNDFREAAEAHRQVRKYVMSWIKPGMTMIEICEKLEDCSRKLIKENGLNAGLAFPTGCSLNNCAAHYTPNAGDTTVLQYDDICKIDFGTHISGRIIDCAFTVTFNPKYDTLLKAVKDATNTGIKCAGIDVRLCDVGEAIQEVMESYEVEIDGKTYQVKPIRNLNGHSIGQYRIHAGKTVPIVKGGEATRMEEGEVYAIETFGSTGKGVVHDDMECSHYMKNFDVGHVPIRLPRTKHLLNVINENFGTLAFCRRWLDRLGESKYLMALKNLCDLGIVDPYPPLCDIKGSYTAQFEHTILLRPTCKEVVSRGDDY

Structure (SMILES) | IC50 (Cytochrome P450 1A2) [µM] | also measured
Cc1cc(C(=O)NCCO)ncc1-c1cc(C(F)(F)F)cc2[nH]ncc12 | > 50.1 | 
COc1cc(C(=O)NCCO)ccc1-c1cc(C(F)(F)F)cc2[nH]ncc12 | > 50.1 | 
CNC(=O)c1ccc(-c2cc(C(F)(F)F)cc3[nH]ncc23)c(OC)c1 | 15.8 | 
FC(F)(F)c1cc(-c2ccc3nccn3c2)c2cn[nH]c2c1 | 0.316 | 
O=C(NCCO)c1ccc(-c2cc(C(F)(F)F)cc3[nH]ncc23)c(F)c1 | > 50.1 | 
Cc1nc(N2CC[C@H](O)C2)ncc1-c1cc(C(F)(F)F)cc2[nH]ncc12 | > 50.1 | EC50 [1]: 0.121 µM
Cc1nc(N2CC[C@@H](O)C2)ncc1-c1cc(C(F)(F)F)cc2[nH]ncc12 [TP-004] | > 50.1 | Vd [2]: 1.25 L/kg; AUC (Mus musculus [3]): 15084 ng·h/mL; half-life [4]: 2 h; EC50 [1]: 0.015 µM; Activity (Mus musculus [5]): Dose-dependent effect; F (Mus musculus [6]): 58%
